Measurements taken from ChEMBL document CHEMBL5365463, “Identification of a Self-Assembling Small-Molecule Cancer Vaccine Adjuvant with an Improved Toxicity Profile” (J Med Chem, 2023).
Calls of active or inactive are those of the source. The calls are words filed in the database; no cut-off is given here.

Assays:
[1] = tested on: BMDC; assay: Induction of IL-6 production in mouse BMDC cells at 100 uM; format: functional, cell-based
[2] = tested on: RAW264.7; assay: Induction of apoptosis in mouse RAW264.7 cells assessed as live cells at 4 uM by flow cytometry analysis (reference value: 67.2 %); format: functional
[3] = tested on: RAW264.7; assay: Induction of apoptosis in mouse RAW264.7 cells assessed as live cells at 8 uM by flow cytometry analysis (reference value: 67.2 %); format: functional
[4] = tested on: RAW264.7; assay: Induction of apoptosis in mouse RAW264.7 cells assessed as live cells at 10 uM by flow cytometry analysis (reference value: 67.2 %); format: functional
[5] = tested on: RAW264.7; assay: Induction of apoptosis in mouse RAW264.7 cells assessed as live cells at 12 uM by flow cytometry analysis (reference value: 67.2 %); format: functional
[6] = tested on: RAW264.7; assay: Induction of apoptosis in mouse RAW264.7 cells assessed as live cells at 16 uM by flow cytometry analysis (reference value: 67.2 %); format: functional
[7] = tested on: RAW264.7; assay: Induction of apoptosis in mouse RAW264.7 cells assessed as apoptotic cells at 4 uM by flow cytometry analysis (reference value: 3.06 %); format: functional
[8] = tested on: RAW264.7; assay: Induction of apoptosis in mouse RAW264.7 cells assessed as apoptotic cells at 8 uM by flow cytometry analysis (reference value: 3.06 %); format: functional
[9] = tested on: RAW264.7; assay: Induction of apoptosis in mouse RAW264.7 cells assessed as apoptotic cells at 10 uM by flow cytometry analysis (reference value: 3.06 %); format: functional
[10] = tested on: RAW264.7; assay: Induction of apoptosis in mouse RAW264.7 cells assessed as apoptotic cells at 12 uM by flow cytometry analysis (reference value: 3.06 %); format: functional
[11] = tested on: RAW264.7; assay: Induction of apoptosis in mouse RAW264.7 cells assessed as apoptotic cells at 16 uM by flow cytometry analysis (reference value: 3.06 %); format: functional
[12] = tested on: RAW264.7; assay: Induction of apoptosis in mouse RAW264.7 cells assessed as necrotic cells at 4 uM by flow cytometry analysis (reference value: 28.7 %); format: functional
[13] = tested on: RAW264.7; assay: Induction of apoptosis in mouse RAW264.7 cells assessed as necrotic cells at 8 uM by flow cytometry analysis (reference value: 28.7 %); format: functional
[14] = tested on: RAW264.7; assay: Induction of apoptosis in mouse RAW264.7 cells assessed as necrotic cells at 10 uM by flow cytometry analysis (reference value: 28.7 %); format: functional
[15] = tested on: RAW264.7; assay: Induction of apoptosis in mouse RAW264.7 cells assessed as necrotic cells at 12 uM by flow cytometry analysis (reference value: 28.7 %); format: functional
[16] = tested on: RAW264.7; assay: Induction of apoptosis in mouse RAW264.7 cells assessed as necrotic cells at 16 uM by flow cytometry analysis (reference value: 28.7 %); format: functional
[17] = Toxicity in BALB/c mouse assessed as effect on body weight loss at 1000 ug measured after 16 hrs in presence of hemagglutinin; conditions: in vivo, dose 1000 µg
[18] = Toxicity in BALB/c mouse assessed as reduction in leukocyte count measured after 16 hrs; conditions: dose 100-1000 µg
[19] = Toxicity in BALB/c mouse assessed as increase in Timp1 expression at 100 to 1000 ug measured after 16 hrs in presence of hemagglutinin; conditions: in vivo, dose 100-1000 µg
[20] = Toxicity in BALB/c mouse assessed as increase in Mx2 expression at 100 to 1000 ug measured after 16 hrs in presence of hemagglutinin; conditions: in vivo, dose 100-1000 µg
[21] = tested on: BMDC; assay: Induction of immune response in TLR7 knockout mouse BMDC cells assessed as increase in IL-6 production at 10 to 100 uM incubated for 24 hrs by ELISA method; format: functional, cell-based; conditions: dose 10-100 µM
[22] = tested on: BMDC; assay: Induction of immune response in TLR7 knockout mouse BMDC cells assessed as increase in TNF-alpha production at 10 to 100 uM incubated for 24 hrs by ELISA method; format: functional, cell-based; conditions: dose 10-100 µM
[23] = tested on: BMDC; assay: Induction of immune response in TLR7 knockout mouse BMDC cells assessed as increase in MIP-1alpha production at 10 to 100 uM incubated for 24 hrs by ELISA method; format: functional, cell-based; conditions: dose 10-100 µM
[24] = tested on: BMDC; assay: Induction of immune response in TLR7 knockout mouse BMDC cells assessed as increase in IFN-beta production at 10 to 100 uM incubated for 24 hrs by ELISA method; format: functional, cell-based; conditions: dose 10-100 µM
[25] = tested on: BMDC; assay: Induction of immune response in TLR7 knockout mouse BMDC cells assessed as increase in CXCL10 production at 10 to 100 uM incubated for 24 hrs by ELISA method; format: functional, cell-based; conditions: dose 10-100 µM
[26] = tested on: Mus musculus; assay: Immuno-adjuvant activity in SV-immunized C57BL/6 mouse assessed as increase in HA-specific IgG1 titer level at 100 ug, sc administered immediately and on day 0, 14 and measured at day 21 by ELISA; format: functional, organism-based; conditions: dose 100.0 µg, time 21.0 day

C[C@H](CCC(=O)NCCCCCNC(=O)CC[C@@H](C)[C@H]1CC[C@H]2[C@@H]3[C@H](O)C[C@@H]4C[C@H](O)CC[C@]4(C)[C@H]3CC[C@]12C)[C@H]1CC[C@H]2[C@@H]3[C@H](O)C[C@H]4C[C@H](O)CC[C@]4(C)[C@H]3CC[C@]12C
Activity [1]: Active

C[C@H](CCC(=O)NCCCCCNC(=O)CC[C@@H](C)[C@H]1CC[C@H]2[C@@H]3CC[C@@H]4C[C@H](O)CC[C@]4(C)[C@H]3C[C@H](O)[C@]12C)[C@H]1CC[C@H]2[C@@H]3CC[C@@H]4C[C@H](O)CC[C@]4(C)[C@H]3C[C@H](O)[C@]12C
Activity [2]: 67.4% | Activity [3]: 66.9% | Activity [4]: 33.5% | Activity [5]: 27.9% | Activity [6]: 11.6% | Activity [7]: 2.23% | Activity [8]: 2.26% | Activity [9]: 0.6% | Activity [10]: 0.13% | Activity [11]: 0.034% | Activity [12]: 28.6% | Activity [13]: 29.4% | Activity [14]: 63.8% | Activity [15]: 69.7% | Activity [16]: 85% | Activity [17]: Toxic | Activity [18]: Dose-Dependent Effect | Activity [19]: Toxic | Activity [20]: Toxic | Activity [21]: inactive | Activity [22]: inactive | Activity [23]: inactive | Activity [24]: inactive | Activity [25]: inactive | Activity [26]: Active
